Laboratory results as given in US11414454B2, “Compositions, methods, and systems for affinity-based protein identification and purification” (Auctus Biologies, Inc., priority 2017, dated 2022).
No end group written: not given here.

Tests used:
RPtag (large) [1] = experiment: Fluorescence anisotropy Kd of rhodamine labeled RPtag (small) peptides for RPtag (large); type: binding, Thermoanaerobacter tengcongensis; settings: for effect of alanine mutation on binding affinity to RPtag(large): alanine scanning versus native
Experimental: (§1) 50 nM of RP-Tag Small (see Sequence 3, below) with an N-terminal Rhodamine B label was incubated with increasing concentrations of either RP-Tag Large (see Sequence 2) or Bovine Serum Albumin (BSA) in 50 mM Tris pH 8.0, 150 mM NaCl, 10 mM 2-mercaptoethanol, and 0.005% Tween 20 for 5 min in black 96-well plates at room temperature.
(§2) Anisotropy was then measured, and a Kd calculated by fitting the data to the equation f=y0+(ymax−y0)*(Ptot+x+Kd−sqrt((Ptot+x+Kd)^2−4*Ptot*x))/(2*Ptot), where y0 is the baseline anisotropy, ymax is the maximum anisotropy, Ptot is the fixed concentration of labeled peptide used, x is the variable concentration of protein used, and Kd is the measured Kd.
(§3) The indicated concentrations of RPtag (large) and an anti-His tag antibody (4E3D10H2/E3 purchased from ThermoFisher Scientific) were incubated with 1 nM rhodamine labeled native RPtag (small) peptide and 6×His peptide (Rhodamine-GHHHHHH), respectively, and fluorescence anisotropy measured. BSA incubated with native rhodamine labeled RPtag(small) is included as a control for non-specific binding. Kd's were calculated according to the equation f=y0+(ymax−y0)*(Ptot+x+Kd−sqrt((Ptot+x+Kd)^2−4*Ptot*x))/(2*Ptot), where y0 is the baseline anisotropy, ymax is the maximum anisotropy, Ptot is the fixed concentration of labeled peptide used, x is the variable concentration of protein used, and Kd is the measured Kd. We measured a Kd of 0.2±0.1 nM for RPtag(large) binding RPtag(small), and a Kd of 6±1 nM for the antibody/6×His tag pair.
Regarding the studies shown in FIG. 14, increasing concentrations of unlabeled RPtag large with the indicated mutations (native, f137d, and f137e) were incubated for 1 h with 1 nM rhodamine labeled RPtag small peptide and the fluorescence anisotropy was measured. Resultant curves were fit with the equation f=y0+(ymax−y0)*(Ptot+x+Kd−sqrt((Ptot+x+Kd)^2−4*Ptot*x))/(2*Ptot), where y0 is the baseline anisotropy, ymax is the maximum anisotropy, Ptot is the fixed concentration of labeled peptide used, x is the variable concentration of protein used, and Kd is the measured Kd. Data are presented here as Ka=1/Kd. Log transformed Ka's were then compared by one-way ANOVA with Holm-Sidak post hoc correction. ***p<0.001, **p<0.01, *p<0.05. data are mean±SEM (n=3-4). Buffer was 50 mM Tris pH 8.0, 0.005% tween20. Proteins were expressed and purified by single step NiNTA chromatography as before. Peptides were synthesized solid-state and handled as previous.

RPtag (large) [2] = experiment: Association/dissociation kinetics of RPtag (small) peptides with RPtag (large) by fluorescence anisotropy; type: binding, Thermoanaerobacter tengcongensis; settings: for koff: LS dissociation, unlabeled competitor peptide; for kf: S to S* forward rate constant; for kon (M^−1 min^−1 ) (×10^7): S*-LS transition, calculated from measured koff and Kd; for kr: S* to S reverse rate constant, calculated from Keq and kf
Experimental: Panel a depicts representative association rate kinetics traces varying native RPtag small. Rhodamine labeled RPtag small at the indicated concentration was incubated with unlabeled RPtag large and the association measured by fluorescence anisotropy. L-S complex concentration was calculated by the equation (r−rmin)/(rmax−rmin)*[S] where r is the measured anisotropy, rmin is the anisotropy in the absence of any RPtag large, rmax is the anisotropy measured in the presence of at saturating RPtag large, and [S] is the total concentration of RPtag small used in the experiment. […] Dashed cyan lines are simulations of the mechanism shown in f using the rate constants detailed herein. The concentrations in the simulations were multiplied by a correction factor of 0.925, which is well within the 90% purity specification of the purchased peptide.
LS complex was performed by incubating 1000 nM RPtag large with the indicated concentrations of rhodamine labeled RPtag small. At the start of the experiment, 0.1 mM unlabeled native RPtag small was added and fluorescence anisotropy monitored. Data processing was done as in panel a, except the red fits were to the single exponential decay equation y=y0+A*exp(−b*t). As expected, the initial dissociation rates were linear with respect to the LS complex.
Fitting to a line yields a rate constant (koff)=0.0091 min^−1 (FIG. 9 panel e). In good agreement, when the kinetics are fit with a first order rate law, a rate constant of 0.012±0.002 min^−1 (n=15) was observed. […] Panel e is a graph of the initial rates of the traces represented in d. Slope of the fit line is 0.0091 min^−1. Data are mean±SE (n=3).
The library of mutant RPtag(small) peptides, described above, was next analyzed to measure off rates (koff). The on rate was also calculated from measured koff and Kd (S*-LS transition), except instead of using unlabeled native peptide as the competitor, we used unlabeled Nd2,P5A,E18A (the tightest binding RPtag(small) peptide identified). […] However, there were notable exceptions. […] This indicates, without wishing to be limited, that P5 may constrain the structure of the peptide. The increased flexibility imparted to the peptide by the P5A mutation may decrease the energy barrier required for binding/unbinding.

[3] = target: Bovine Serum Albumin (BSA) (Bos taurus, UniProt P02769); type: binding; settings: fluorescence anisotropy, rhodamine labeled peptide; up to 10 μM BSA
Chain of Bovine Serum Albumin (BSA) (P02769 25-607): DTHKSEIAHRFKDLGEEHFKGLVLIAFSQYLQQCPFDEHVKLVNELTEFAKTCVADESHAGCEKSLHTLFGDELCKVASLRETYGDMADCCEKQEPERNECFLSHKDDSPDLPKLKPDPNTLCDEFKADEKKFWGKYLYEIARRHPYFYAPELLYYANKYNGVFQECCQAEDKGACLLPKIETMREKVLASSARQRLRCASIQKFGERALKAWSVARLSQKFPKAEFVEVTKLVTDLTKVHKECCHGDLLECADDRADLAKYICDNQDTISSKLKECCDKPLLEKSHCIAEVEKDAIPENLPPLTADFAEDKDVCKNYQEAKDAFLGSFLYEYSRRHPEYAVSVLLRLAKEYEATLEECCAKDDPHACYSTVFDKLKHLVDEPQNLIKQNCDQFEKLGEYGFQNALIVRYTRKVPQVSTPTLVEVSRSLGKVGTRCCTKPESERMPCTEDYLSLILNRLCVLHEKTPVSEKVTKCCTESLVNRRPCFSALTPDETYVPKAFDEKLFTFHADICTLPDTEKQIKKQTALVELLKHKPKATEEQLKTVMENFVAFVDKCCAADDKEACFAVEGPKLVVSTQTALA
Experimental: as §1, §2, §3

immobilized RP-Tag Large = experiment: Column elution trials of rhodamine labeled RP-Tag Small bound to immobilized RP-Tag Large; type: binding, Thermoanaerobacter tengcongensis
Experimental: One embodiment of the disclosed RP-Tag system was tested by creating a column with one component bound to a solid, agarose-based matrix. In these experiments, a SulfoLink™ Immobilization kit (ThermoFisher scientific) was used to affix RP-Tag Large to a solid support, according to the manufacturer's instructions. For these experiments, an N-terminal linker was added to RP-Large that included a Cys residue. One of skill in the art is able to select various techniques and chemistries to aid in affixing either RP-Tag protein to a solid support matrix.
The amount of protein linked to the column was determined using a BCA assay with Bovine Serum Albumin (BSA) as a standard. […] The linked resin was poured into an included column and the column capped with a frit included in the kit (see photos in FIG. 2). The column was equilibrated with several volumes of 50 mM Tris pH 8.5, 150 mM NaCl, 5 mM EDTA.
25 mL of 1 μM Rhodamine-6B labeled RP-Tag Small, in 50 mM Tris pH 8.5, 150 mM NaCl, 5 mM EDTA, was flowed over the column of immobilized RP-Tag Large protein. RP-Tag Small bound the column and formed a visibly bright red band (rhodamine B) at the top of the resin (see FIG. 2).
Briefly, after binding, the RP-Tag Small red band was not observed to appreciably diffuse and/or elute after washing the column (and band) with various solutions. For these tests, 10 mL (5 column volumes) of various buffers were added to the column. The tested buffers ranged from about pH 1.5-13.7 and about 1 M sodium hydroxide.
Table 1. Summary of elution trial data. The test system used was a column equilibrated with 50 mM Tris pH 8.5, 150 mM NaCl, 5 mM EDTA, and applied 25 mL 1 μM Rhodamine-6B labeled RP-small peptide in the same buffer. In cases where D-ribose was used, the indicated concentration was also included in the equilibration and loading buffer.

[4] = N-terminal rhodamine tagged peptide, unlabeled RPtag (large), 50 mM Tris pH 8.0, 0.005% Tween 20, mean ± SE

| Compound | Kd (RPtag (large) [1]; [4]) | koff (RPtag (large) [2]) | kf (RPtag (large) [2]) | kon (M^−1 min^−1 ) (×10^7) (RPtag (large) [2]) | kr (RPtag (large) [2]) | further results |
| --- | --- | --- | --- | --- | --- | --- |
| GEKIPNFIPAELKLITKENVQ [v20a, RPtag(small) with V20 changed to alanine] | 0.18 ± 0.03 nM | 0.0002 ± 1.7e-05 s⁻¹ | 0.073 ± 0.003 min⁻¹ | 6.8 ± 0.5 ×10^7 M^−1 min^−1 | – | – |
| GEKIPNFIAPELALITKENVQ [k13a] | 1.1 ± 0.1 nM | 0.0003 ± 1.7e-05 s⁻¹ | – | 1.7 ± 0.1 ×10^7 M^−1 min^−1 | – | – |
| FIPAELKLITK [Nd6, Cd4, FIPAELKLITK] | 9.9 ± 1.1 nM | >0.033 s⁻¹ | – | – | – | – |
| CC[C@H](C)[C@H](NC(=O)[C@H](CC(C)C)NC(=O)[C@H](CCCCN)NC(=O)[C@H](CC(C)C)NC(=O)[C@H](CCC(=O)O)NC(=O)[C@H](C)NC(=O)[C@@H]1CCCN1C(=O)[C@@H](NC(=O)[C@H](Cc1ccccc1)NC(=O)[C@H](CC(N)=O)NC(=O)[C@@H]1CCCN1C(=O)[C@@H](NC(=O)[C@H](CCCCN)NC(=O)[C@H](CCC(=O)O)NC(=O)[C@H](C)N)[C@@H](C)CC)[C@@H](C)CC)C(=O)N[C@H](C(=O)N[C@@H](CCCCN)C(=O)N[C@@H](CCC(=O)O)C(=O)N[C@@H](CC(N)=O)C(=O)N[C@H](C(=O)N[C@@H](CCC(N)=O)C(=O)O)C(C)C)[C@@H](C)O [g1a] | 0.29 ± 0.03 nM | 7.83e-05 ± 5e-06 s⁻¹ | 0.086 ± 0.004 min⁻¹ | 1.6 ± 0.1 ×10^7 M^−1 min^−1 | 0.037 ± 0.001 min⁻¹ | – |
| GEKIPNFIPAELKLITKENV [Cd1] | 0.55 ± 0.04 nM | 0.000102 ± 1e-05 s⁻¹ | 0.10 ± 0.01 min⁻¹ | 1.1 ± 0.1 ×10^7 M^−1 min^−1 | 0.042 ± 0.007 min⁻¹ | – |
| GEKIPNFIPAELKLITKENVQ [q21a, RPtag(small) with Q21 changed to alanine] | – | 5.67e-05 ± 5e-06 s⁻¹ | 0.087 ± 0.005 min⁻¹ | – | – | effect of alanine mutation on binding affinity to RPtag(large) (RPtag (large) [1]): significantly increased binding affinity |
| GEKIPNFIPAELKLITKENVQ [n19a, RPtag(small) with N19 changed to alanine] | 0.26 ± 0.02 nM | 0.000617 ± 5e-05 s⁻¹ | 0.089 ± 0.003 min⁻¹ | 14 ± 1 ×10^7 M^−1 min^−1 | 0.057 ± 0.008 min⁻¹ | – |
| AIANFIPAELKLITKANVQ [Nd2, k3a, e18a] | 0.88 ± 0.01 nM | 0.000533 ± 1.7e-05 s⁻¹ | – | 2.6 ± 0.1 ×10^7 M^−1 min^−1 | – | – |
| GEKIPNFIPAELKLITKENVQ [RP-Tag Small] | – | – | – | – | – | Kd (RPtag (large) [1]; 50 nM N-terminal Rhodamine B RP-Tag Small, 50 mM Tris pH 8.0, 150 mM NaCl, 10 mM 2-mercaptoethanol, 0.005% Tween 20): 8 nM; binding to BSA [3]: no binding; Result of elution trial (bound rhodamine band) (immobilized RP-Tag Large; 0.1M Tris pH 7.5 + 100 μM unlabeled RP tag peptide): Partial band elution, slight; Result of elution trial (bound rhodamine band) (immobilized RP-Tag Large; 0.1M Tris pH 7.5 + 6M guanidine hydrochloride): Complete band elution; Result of elution trial (bound rhodamine band) (immobilized RP-Tag Large; 0.1M Tris pH 7.5 + 6M guanidine hydrochloride + 10 mM D-ribose): partial band elution,; Result of elution trial (bound rhodamine band) (immobilized RP-Tag Large; 0.1M Tris pH 7.5 + 6M guanidine hydrochloride + 100 mM D-ribose): no band elution, significant; Result of elution trial (bound rhodamine band) (immobilized RP-Tag Large; 0.1M Tris pH 7.5 + 6M guanidine hydrochloride + 1M D-ribose): No band elution, minor; Result of elution trial (bound rhodamine band) (immobilized RP-Tag Large; 5 column volumes 0.05M sodium acetate pH 4.6): No band diffusion/elution; Result of elution trial (bound rhodamine band) (immobilized RP-Tag Large; 5 column volumes 0.1M Tris pH 7.5): No band diffusion/elution; Result of elution trial (bound rhodamine band) (immobilized RP-Tag Large; 5 column volumes 0.1M Tris pH 8.0): No band diffusion/elution; Result of elution trial (bound rhodamine band) (immobilized RP-Tag Large; 5 column volumes 0.1M Tris pH 8.5): No band diffusion/elution; Result of elution trial (bound rhodamine band) (immobilized RP-Tag Large; 5 column volumes 0.1M glycine pH 1.5): Complete band elution; Result of elution trial (bound rhodamine band) (immobilized RP-Tag Large; 5 column volumes 0.1M glycine pH 2.5): No band diffusion/elution; Result of elution trial (bound rhodamine band) (immobilized RP-Tag Large; 5 column volumes 0.1M glycine pH 3.5): No band diffusion/elution; Result of elution trial (bound rhodamine band) (immobilized RP-Tag Large; 5 column volumes 0.1M sodium phosphate pH 12.0): No band diffusion/elution; Result of elution trial (bound rhodamine band) (immobilized RP-Tag Large; 5 column volumes 0.1M sodium phosphate pH 13.0): No band diffusion/elution; Result of elution trial (bound rhodamine band) (immobilized RP-Tag Large; 5 column volumes 0.1M sodium phosphate pH 13.7): No band diffusion/elution; Result of elution trial (bound rhodamine band) (immobilized RP-Tag Large; 5 column volumes 1M sodium hydroxide): No band diffusion/elution; stability of bound band on column (immobilized RP-Tag Large; room temperature): > 1 week |
| GAKIPNFIPAELKLITKENVQ [e2a] | – | 8.83e-05 ± 1.2e-05 s⁻¹ | – | 5.1 ± 0.7 ×10^7 M^−1 min^−1 | – | effect of alanine mutation on binding affinity to RPtag(large) (RPtag (large) [1]): significantly increased binding affinity |
